Laboratory results from patent publication US20080031955A1, “Product Comprising a Beta-Lactam Antibiotic” (priority 2004, published 2008).

Tests used:
Format in all cases: physicochemical
[1] = Acetone content of the dried product by gas chromatography
Method: The acetone content or concentration of organic solvent may be determined in any suitable manner, e.g. by gas chromatography.
The acetone content of the dried product was analysed using a Hewlett-Packard Gas Chromatograph, model 5890. As a sample solution was used a solution obtained by dissolving 0.500 g of product in 10.0 ml of water (with the aid of some drops of NaOH 1 N). As a standard (reference) solution was used a solution obtained by dissolving 0.5 g of acetone standard in 50.0 ml of water, from which 1.0 ml was taken and diluted with 50.0 ml water.

[2] = Color C400 measured at 400 nm (Ph. Eur.); settings: color measured at a wavelength of 400 nm
Description: In a preferred embodiment, the product according to the invention has a C400≦0.20, wherein C400 is the color measured at a wavelength of 400 nm (Ph.Eur.). Preferably, the product has a C400≦0.15, preferably a C400≦0.10.

[3] = Water content (Karl Fisher) of the dried product; settings: after drying
Method: The wet cake was fluidised with air at ambient temperature during 15 to 30 minutes, after which it was fluidised with warm air (30-40° C.) during 45 to 75 minutes (air flow 1800 m^3/hr), until the water content was 5.2 wt. % (Karl Fisher).
(product temperature 40° C.). The final pressure was 20 mbar. […] The water content was 5.2 wt. % (Karl Fisher).

Compound | Acetone content ([1]; dried cephalexin product) [mg/kg] | Acetone content ([1]; dried product, fluid bed dryer) | C400 (Ph. Eur.) [2] | water content (Karl Fisher) [3] [wt. %]
CC1=C(C(=O)O)N2C(=O)[C@@H](NC(=O)[C@H](N)c3ccccc3)[C@H]2SC1 [Comparative experiment A, cephalexin] | 500 | 500 mg of acetone per kg of cephalexin | 0.025 | 5.2
CC1=C(C(=O)O)N2C(=O)[C@@H](NC(=O)[C@H](N)c3ccccc3)[C@H]2SC1.O [Example I, cephalexin] | 10 | – | 0.026 | 5.2
